Data on 28 compounds can be found in US9079866B2, “Flap modulators” (JANSSEN PHARMACEUTICA NV, priority 2013, dated 2015).

Molecules are shown by their SMILES. Like-named read-outs stand apart in the source and are kept apart here. Bounds are passed on as bounds.

Assay [1] has as its target human FLAP (Homo sapiens (Human), UniProt P20292). The experiment in a line: FLAP binding assay (HTRF format). Conditions: HTRF format. In short, it runs like this: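 Binding of compounds to FLAP read out as HTRF ratio. Values are the mean of two assay plates, each sample run in duplicate per plate.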
The subject of assay [2] is leukotriene pathway in human whole blood (LTB4 levels). Description: Human whole blood assay (A23187-stimulated LTB4). Format: cell-based. Conditions: Homo sapiens, read-out: LTB4 IC50 1:1. In short, it runs like this: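 Heparinised human whole blood diluted 1:1 in RPMI, pre-incubated 15 min at 37° Celsius with compound, then stimulated with A23187 (7 μg/mL) for 30 min at 37° Celsius. Plasma LTB4 measured by immunoassay kit; IC50 from 4-parameter fit; single replicate per plate, at least one healthy donor.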

[3] abbreviates: human FLAP wild type, average of two plates, duplicates.
The mark [4] stands for this setting: human whole blood diluted 1:1 in RPMI, A23187-stimulated LTB4.
[5] abbreviates: human whole blood diluted 1:1, A23187-stimulated.

human FLAP, sequence (P20292 whole entry): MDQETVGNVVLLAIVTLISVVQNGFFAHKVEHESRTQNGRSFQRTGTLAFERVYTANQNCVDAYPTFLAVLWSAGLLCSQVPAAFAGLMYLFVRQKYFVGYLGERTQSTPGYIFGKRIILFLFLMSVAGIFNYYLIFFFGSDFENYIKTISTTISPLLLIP

Compound `CC(NS(=O)(=O)c1ccccc1-c1ccc(-c2cnc(N)cn2)c(F)c1)C(F)(F)F` (racemic) [Example 8, racemic 4′-(5-Aminopyrazin-2-yl)-3′-fluoro-N-(2,2,2-trifluoro-1-methylethyl)biphenyl-2-sulfonamide] displayed a Ki in assay [1] (setting [3]) of 1 nM. Further, the IC50 in assay [2] (setting [4]) is 12 nM. Compound `Nc1cnc(-c2ccc(-c3ccccc3S(=O)(=O)NC3CC4CCC3C4)cc2F)cn1` (racemic) [Example 10, racemic (endo)-4′-(5-Aminopyrazin-2-yl)-N-bicyclo[2.2.1]hept-2-yl-3′-fluorobiphenyl-2-sulfonamide] had a Ki in assay [1] (setting [3]) of 3 nM. The IC50 in assay [2] (setting [4]) is 53 nM. The compound `Nc1cnc(-c2ccc(-c3ccccc3S(=O)(=O)N3CCN4CCCC4C3)cc2F)cn1` (racemic) [Example 61, racemic 5-[3-Fluoro-2′-(hexahydropyrrolo[1,2-a]pyrazin-2(1H)-ylsulfonyl)biphenyl-4-yl]pyrazin-2-amine] yielded a Ki in assay [1] (setting [3]) of 11 nM. Besides, the IC50 in assay [2] (setting [4]) stood at 117 nM. For `CC1CN(S(=O)(=O)c2ccccc2-c2ccc(-c3cnc(N)cn3)c(F)c2)CC(C)N1` (racemic) [Example 62, Racemic-5-{2′-[(3,5-Dimethylpiperazin-1-yl)sulfonyl]-3-fluorobiphenyl-4-yl}pyrazin-2-amine], in that order: 142 nM and 111 nM.

In turn, `Nc1cnc(-c2ccc(-c3ccccc3S(=O)(=O)N3CCCC(CCO)C3)cc2F)cn1` (racemic) [Example 71, racemic-2-(1-{[4′-(5-Aminopyrazin-2-yl)-3′-fluorobiphenyl-2-yl]sulfonyl}piperidin-3-yl)ethanol] registered a Ki in assay [1] (setting [3]) of 2 nM. For the same compound, in assay [2] (setting [4]), the IC50 is 23 nM. With `Nc1cnc(-c2ccc(-c3ccccc3S(=O)(=O)N3CCCC(N)C3)cc2F)cn1` (racemic) [Example 74, racemic 5-{2′-[(3-Aminopiperidin-1-yl)sulfonyl]-3-fluorobiphenyl-4-yl}pyrazin-2-amine], the Ki in assay [1] (setting [3]) was 6 nM. The IC50 in assay [2] (setting [4]) worked out at 61 nM. In turn, `CC(C)(C)OC(=O)NC1CCCN(S(=O)(=O)c2ccccc2-c2ccc(-c3cnc(N)cn3)c(F)c2)C1` (racemic) [Example 77, racemic tert-Butyl (1-{[4′-(5-aminopyrazin-2-yl)-3′-fluorobiphenyl-2-yl]sulfonyl}piperidin-3-yl)carbamate] came in with a Ki in assay [1] (setting [3]) of 3 nM. Further, the IC50 in assay [2] (setting [4]) was 342 nM. Taken in the same sequence, the figures for `Nc1cnc(-c2ccc(-c3ccccc3S(=O)(=O)N[C@H]3CCCC[C@@H]3O)cc2F)cn1` (racemic) [Example 120, Racemic-(trans)-4′-(5-Aminopyrazin-2-yl)-3′-fluoro-N-(2-hydroxycyclohexyl)biphenyl-2-sulfonamide] were 1 nM and 17 nM. On to `Nc1cnc(-c2ccc(-c3ccccc3S(=O)(=O)N[C@@H]3CCCC[C@@H]3CO)cc2F)cn1` (racemic) [Example 122, racemic (cis)-4′-(5-Aminopyrazin-2-yl)-3′-fluoro-N-[2-(hydroxymethyl)cyclohexyl]biphenyl-2-sulfonamide], for which the Ki in assay [1] (setting [3]) was 1 nM. In addition, the IC50 in assay [2] (setting [4]) is 18 nM.

Turning to `NC(=O)C1CCN1S(=O)(=O)c1ccccc1-c1ccc(-c2cnc(N)cn2)c(F)c1` (racemic) [Example 139, Racemic 1-{[4′-(5-Aminopyrazin-2-yl)-3′-fluorobiphenyl-2-yl]sulfonyl}azetidine-2-carboxamide], affinity in assay [1] (setting [3]) was put at a Ki of 133 nM. The IC50 in assay [2] (setting [4]) worked out at 341 nM. Take `Nc1cnc(-c2ccc(-c3ccccc3S(=O)(=O)N3CCOC(CO)C3)cc2F)cn1` (racemic) [Example 142, racemic (4-{[4′-(5-Aminopyrazin-2-yl)-3′-fluorobiphenyl-2-yl]sulfonyl}morpholin-2-yl)methanol]: in assay [1] (setting [3]), affinity was put at a Ki of 15 nM. Moreover, the IC50 in assay [2] (setting [4]) amounted to 41 nM. As to `Nc1cnc(-c2ccc(-c3ccccc3S(=O)(=O)N3CCC(O)(c4ccccc4)C3)cc2F)cn1` (racemic) [Example 180, racemic 1-{[4′-(5-Aminopyrazin-2-yl)-3′-fluorobiphenyl-2-yl]sulfonyl}-3-phenylpyrrolidin-3-ol], affinity in assay [1] (setting [3]) was put at a Ki of 2 nM. The IC50 in assay [2] (setting [4]) amounted to 37 nM.

The compound `Nc1cnc(-c2ccc(-c3ccccc3S(=O)(=O)N3C[C@H](O)[C@@H](N4CCCC4)C3)cc2F)cn1` (racemic) [Example 186, Racemic-1′-{[4′-(5-Aminopyrazin-2-yl)-3′-fluorobiphenyl-2-yl]sulfonyl}-1,3′-bipyrrolidin-4′-ol] came in with a Ki in assay [1] (setting [3]) of 19 nM. The IC50 in assay [2] (setting [4]) came to 21 nM. As to `Nc1cnc(-c2ccc(-c3ccccc3SCC3CNC(=O)O3)cc2F)cn1` (racemic) [Example 203, racemic 5-({[4′-(5-Aminopyrazin-2-yl)-3′-fluorobiphenyl-2-yl]sulfanyl}methyl)-1,3-oxazolidin-2-one], in assay [1] (setting [3]), the Ki was 5 nM. The IC50 in assay [2] (setting [4]) was determined as 52 nM. In the case of `Nc1ncc(-c2ccc(-c3ccccc3S(=O)(=O)N3CCOC(CO)C3)cc2F)cn1` (racemic) [Example 252, racemic (4-{[4′-(2-Aminopyrimidin-5-yl)-3′-fluorobiphenyl-2-yl]sulfonyl}morpholin-2-yl)methanol], the Ki in assay [1] (setting [3]) stood at 127 nM. Further, the IC50 in assay [2] (setting [4]) was determined as 206 nM.

Take `Nc1ncc(-c2ccc(-c3ccccc3S(=O)(=O)N[C@H]3CCCC[C@H]3O)cc2F)cn1` (racemic) [Example 259, racemic 4′-(2-Aminopyrimidin-5-yl)-3′-fluoro-N-[(cis)-2-hydroxycyclohexyl]biphenyl-2-sulfonamide]: in assay [1] (setting [3]), affinity was put at a Ki of 5 nM. In addition, in assay [2] (setting [4]), the IC50 is 34 nM. In the case of `Nc1ncc(-c2ccc(-c3ccccc3S(=O)(=O)N[C@H]3CCCC[C@@H]3O)cc2F)cn1` (racemic) [Example 260, racemic 4′-(2-Aminopyrimidin-5-yl)-3′-fluoro-N-[(trans)-2-hydroxycyclohexyl]biphenyl-2-sulfonamide], the Ki in assay [1] (setting [3]) stood at 10 nM. Further, the IC50 in assay [2] (setting [4]) was found to be 57 nM. Regarding `Nc1ncc(-c2ccc(-c3ccccc3S(=O)(=O)N3CCCC(CCO)C3)cc2F)cc1F` (racemic) [Example 671, 2-(1-((4′-(6-Amino-5-fluoropyridin-3-yl)-3′-fluoro-[1,1′-biphenyl]-2-yl)sulfonyl)piperidin-3-yl)ethanol], the affinity in assay [1] (wild type FLAP) corresponds to a Ki of 15.7 nM. The IC50 in assay [2] (setting [5]) is 164 nM. In the case of `Nc1ncc(-c2ccc(-c3ccccc3S(=O)(=O)N3CCCC(CO)C3)cc2F)cc1F` (racemic) [Example 672, (1-((4′-(6-Amino-5-fluoropyridin-3-yl)-3′-fluoro-[1,1′-biphenyl]-2-yl)sulfonyl)piperidin-3-yl)methanol], in assay [1] (wild type FLAP), the Ki worked out at 13.7 nM. Also, the IC50 in assay [2] (setting [5]) worked out at 196 nM. For `Nc1cnc(-c2ccc(-c3ccccc3C(=O)N3CCOC(C(F)(F)F)C3)cc2F)cn1` (racemic) [Example 754, racemic 5-(3-Fluoro-2′-{[2-(trifluoromethyl)morpholin-4-yl]carbonyl}biphenyl-4-yl)pyrazin-2-amine], in that order: 69.9 nM and 377 nM. Compound `Nc1cnc(-c2ccc(-c3ccccc3C(=O)N3CCOC(CO)C3)cc2F)cn1` (racemic) [Example 798, [2-[4-(5-Aminopyrazin-2-yl)-3-fluoro-phenyl]phenyl]-[2-(hydroxymethyl)morpholin-4-yl]methanone] registered a Ki in assay [1] (wild type FLAP) of 257 nM. The IC50 in assay [2] (setting [5]) came to 220 nM. Compound `Nc1cnc(-c2ccc(-c3ccccc3S(=O)(=O)N3C[C@H](O)[C@@H](O)C3)cc2F)cn1` (relative stereo) [Example 106, (trans)-1-{[4′-(5-Aminopyrazin-2-yl)-3′-fluorobiphenyl-2-yl]sulfonyl}pyrrolidine-3,4-diol] gave a Ki in assay [1] (setting [3]) of 19 nM. Besides, in assay [2] (setting [4]), the IC50 is more than 1000 nM. Take `Nc1cnc(-c2ccc(-c3ccccc3S(=O)(=O)NC3CCc4ccccc43)cc2F)cn1` (stereo in doubt) [Example 22, (S)-4′-(5-Aminopyrazin-2-yl)-N-[(1S)-2,3-dihydro-1H-inden-1-yl]-3′-fluorobiphenyl-2-sulfonamide]: the Ki in assay [1] (setting [3]) came to 2 nM. The IC50 in assay [2] (setting [4]) came out at 48 nM. For `C[C@@H]([C@@H](O)c1ccccc1)N(C)S(=O)(=O)c1ccccc1-c1ccc(-c2ccc(N)nc2)c(F)c1` [Example 666, 4′-(6-Aminopyridin-3-yl)-3′-fluoro-N-((1S,2S)-1-hydroxy-1-phenylpropan-2-yl)-N-methyl-[1,1′-biphenyl]-2-sulfonamide], the IC50 in assay [2] (setting [5]) was 36.1 nM. Turning to `CC(=O)NC1CCN(S(=O)(=O)c2ccccc2-c2ccc(-c3cnc(N)c(F)c3)c(F)c2)CC1` [Example 670, N-(1-((4′-(6-Amino-5-fluoropyridin-3-yl)-3′-fluoro-[1,1′-biphenyl]-2-yl)sulfonyl)piperidin-4-yl)acetamide], the IC50 in assay [2] (setting [5]) came out at 526 nM. For the compound `N#Cc1nc(N)cnc1-c1ccc(-c2ccc(C(F)(F)F)cc2S(=O)(=O)N2CCNC(=O)C2)cc1F` [Example 715, 6-Amino-3-{3-fluoro-2′-[(3-oxopiperazin-1-yl)sulfonyl]-4′-(trifluoromethyl)biphenyl-4-yl}pyrazine-2-carbonitrile], the IC50 in assay [2] (setting [5]) is 186 nM.

In the case of `CC(C)(C(N)=O)S(=O)(=O)c1ccccc1-c1ccc(-c2cnc(N)cn2)c(F)c1` [Example 736, 2-{[4′-(5-Aminopyrazin-2-yl)-3′-fluorobiphenyl-2-yl]sulfonyl}-2-methylpropanamide], the IC50 in assay [2] (setting [5]) is 414 nM.

As to `N#Cc1nc(N)cnc1-c1ccc(-c2ccccc2Oc2nccc(N)n2)cc1F` [Example 745, 6-Amino-3-{2′-[(4-aminopyrimidin-2-yl)oxy]-3-fluorobiphenyl-4-yl}pyrazine-2-carbonitrile], the IC50 in assay [2] (setting [5]) was found to be 111 nM.
